Source: ChEMBL document CHEMBL6153159, “Eperisone Analogs, Rescuers of MiaB Defects As a Prokaryotic Homologue of CDKAL1, Suppress Blood Glucose Elevation in Rats” (ACS Med Chem Lett, 2025)
The source made the active and inactive calls. No cut-off for these calls is given here.

Assays:
[1] = target: T1, Threonylcarbamoyladenosine tRNA methylthiotransferase (Homo sapiens) (UniProt Q5VV42); assay: Rescue of mistranslation activity in CDKAL1 (unknown origin) extracted from Escherichia coli harboring MIaB deficient at 10 uM incubated for 1 hr by dual luciferase assay
T1 sequence (whole entry): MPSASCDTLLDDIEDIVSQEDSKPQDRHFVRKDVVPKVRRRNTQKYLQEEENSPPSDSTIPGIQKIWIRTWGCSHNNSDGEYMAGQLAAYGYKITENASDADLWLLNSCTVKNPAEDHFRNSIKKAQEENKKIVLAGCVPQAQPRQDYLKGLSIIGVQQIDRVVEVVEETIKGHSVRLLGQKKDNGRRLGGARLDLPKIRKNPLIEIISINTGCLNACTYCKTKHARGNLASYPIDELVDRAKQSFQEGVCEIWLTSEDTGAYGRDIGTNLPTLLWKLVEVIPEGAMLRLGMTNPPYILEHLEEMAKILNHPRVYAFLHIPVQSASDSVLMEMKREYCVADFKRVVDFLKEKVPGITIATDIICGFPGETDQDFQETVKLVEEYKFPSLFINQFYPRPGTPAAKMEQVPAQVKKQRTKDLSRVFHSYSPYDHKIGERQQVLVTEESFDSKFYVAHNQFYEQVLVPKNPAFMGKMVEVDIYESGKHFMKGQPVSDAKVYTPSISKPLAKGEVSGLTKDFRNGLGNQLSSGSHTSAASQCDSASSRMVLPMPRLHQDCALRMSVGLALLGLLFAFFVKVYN

Rattus norvegicus [2] = assay: Hypoglycemic effect in male Wister rat assessed as reduction in blood glucose level at 100 mg/kg, sc measured immediately after oral glucose challenge by OGTT analysis; format: functional, organism-based; conditions: time 0.0 min
Rattus norvegicus [3] = assay: Antihyperglycemic activity in male Wister rat assessed as reduction in blood glucose level at 100 mg/kg, sc measured at 30 mins after oral glucose challenge by OGTT analysis; format: functional, organism-based
MIN6 [4] = assay: Cytotoxicity against mouse MIN6 cells at 10 uM by MTT assay relative to control; format: toxicity, cell-based; conditions: min6, 10 µM
MIN6 [5] = assay: Induction of insulin secretion in mouse MIN6 cells at 10 uM incubated for 24 hrs by ELISA method; format: functional, cell-based
[6] = Drug concentration in Wister rat plasma at 100 mg/kg, po measured after 60 mins; format: ADME, organism-based; conditions: Wistar
[7] = Drug concentration in Wister rat plasma at 100 mg/kg, sc measured after 60 mins; format: ADME, organism-based; conditions: Wistar
Rattus norvegicus [8] = assay: Antihyperglycemic activity in male Wister rat assessed as reduction in blood glucose level at 100 mg/kg, sc measured at 60 mins after oral glucose challenge by OGTT analysis; format: functional, organism-based
MIN6 [9] = assay: Induction of insulin secretion in mouse MIN6 cells at 3 uM incubated for 24 hrs by ELISA method; format: functional, cell-based

Row | Ratio [1] | Compound | also measured
1 | 0.7 | CCc1ccc(C(=O)C(C)CN2CCCCC2)cc1 (stereo not drawn) | 
2 | 0.84 | CC(CN1CCCCC1)C(=O)c1ccc(Br)cc1 (racemic) | 
3 | 0.86 | CC(CN1CCCCC1)C(=O)c1ccc(Cl)cc1 (racemic) | 
4 | 1.08 | CC(CN1CCCCC1)C(=O)c1ccc(F)cc1 (racemic) | 
5 | 0.71 | CC(CN1CCCCC1)C(=O)c1ccc(O)cc1 (racemic) | 
6 | 0.8 | CCCCOc1ccc(C(=O)C(C)CN2CCCCC2)cc1 (racemic) | 
7 | 0.85 | CCCOc1ccc(C(=O)C(C)CN2CCCCC2)cc1 (racemic) | 
8 | 1.01 | CCCc1ccc(C(=O)C(C)CN2CCCCC2)cc1 (racemic) | 
9 | 0.84 | CCOc1ccc(C(=O)C(C)CN2CCCCC2)cc1 (racemic) | 
10 | 1.01 | CCc1ccc(C(=O)C(C)CN2CCCC2)cc1 (racemic) | 
11 | 0.99 | CCc1ccc(C(=O)C(C)CN2CCCCC2)o1 (racemic) | 
12 | 0.63 | CCc1ccc(C(=O)C(C)CN2CCCCC2)s1 (racemic) | 
13 | 1.01 | CCc1ccc(C(=O)C(C)CN2CCCCCC2)cc1 (racemic) | 
14 | 0.95 | CCc1cccc(C(=O)C(C)CN2CCCCC2)c1 (racemic) | 
15 | 0.98 | CCc1ccccc1C(=O)C(C)CN1CCCCC1 (racemic) | 
16 | 0.99 | Cc1ccc(C(=O)C(C)CN2CCCCC2)cc1 (racemic) | 

The remaining lines, values behind:

Row | Compound | Ratio [1] | also measured
17 | CC(C)(C)c1ccc(C(=O)CCN2CCCCC2)cc1 | 0.8 | 
18 | CC(C)[C@H]1CC[C@H](C(=O)N[C@H](Cc2ccccc2)C(=O)O)CC1 |  | Activity (Rattus norvegicus [2]): Active
19 | CCc1ccc(C(=O)C(C)(C)CN2CCCCC2)cc1 | 0.66 | 
20 | CCc1ccc(C(=O)CCN2CCCCC2)cc1 | 0.8 | 
21 | COCCOc1ccc(C(=O)C(C)CN2CCCCC2)cc1.Cl (racemic) | 0.53 | Activity (Rattus norvegicus [3]): Active; Activity (MIN6 [4]): 3%; Activity (MIN6 [5]): Active; Activity (Rattus norvegicus [2]): inactive; concentration at 1 h [6]: ≤ 2 µM; concentration at 1 h [7]: > 15 µM; Activity (Rattus norvegicus [8]): Active
22 | CC(CN1CCCCC1)C(=O)c1ccc(C(C)(C)C)cc1.Cl (racemic) | 0.44 | Activity (Rattus norvegicus [3]): Active; Activity (MIN6 [4]): 4%; Activity (Rattus norvegicus [2]): inactive; concentration at 1 h [6]: ≤ 2 µM; concentration at 1 h [7]: > 15 µM; Activity (MIN6 [9]): Active; Activity (Rattus norvegicus [8]): Active
23 | CC(C)(C)c1ccc(C(=O)C(CN2CCCCC2)C(=O)O)cc1 (racemic) | 1.16 | 
24 | CC(C)COc1ccc(C(=O)C(C)CN2CCCCC2)cc1 (racemic) | 0.88 | 
25 | CC(C)Oc1ccc(C(=O)C(C)CN2CCCCC2)cc1 (racemic) | 0.93 | 
26 | CC(CN1CCCCC1)C(=O)c1ccc(C(C)C)cc1 (racemic) | 0.78 | 
27 | CC(CN1CCCCC1)C(=O)c1ccc(C(F)(F)F)cc1 (racemic) | 0.87 | 
28 | CC(CN1CCCCC1)C(=O)c1ccc(C2CCCCC2)cc1 (racemic) | 1.3 | 
29 | CC(CN1CCCCC1)C(=O)c1ccc(CC(C)(C)C)cc1 (racemic) | 1.05 | 
30 | CC(CN1CCCCC1)C(=O)c1ccc(OCCO)cc1 (racemic) | 0.82 | 
31 | CC(CN1CCCCC1)C(=O)c1cccc(C(C)(C)C)c1 (racemic) | 0.95 | 
32 | CCC(C)(C)c1ccc(C(=O)C(C)CN2CCCCC2)cc1 (racemic) | 0.85 | 
33 | CCC(CN1CCCCC1)C(=O)c1ccc(C(C)(C)C)cc1 (racemic) | 0.73 | 
34 | CCc1ccc(C(=O)C(C)CC2CCNCC2)cc1 (racemic) | 0.75 | 
35 | CCc1ccc(C(=O)C(C)CN2CCC(C)CC2)cc1 (racemic) | 0.98 | 
36 | CCc1ccc(C(=O)C(C)CN2CCC(OC)CC2)cc1 (racemic) | 1.13 | 
37 | CCc1ccc(C(=O)C(C)CN2CCC(c3ccccc3)CC2)cc1 (racemic) | 1.01 | 
38 | CCc1ccc(C(=O)C(C)CN2CCN(C)CC2)cc1 (racemic) | 0.7 | 
39 | CCc1ccc(C(=O)C(C)CN2CCN(CC)CC2)cc1 (racemic) | 0.71 | 
40 | CCc1ccc(C(=O)C(C)CN2CCOCC2)cc1 (racemic) | 1.29 | 
41 | CCc1ccc(C(=O)C(C)CN2CCSCC2)cc1 (racemic) | 0.97 | 
42 | CCc1ccc(C(=O)C(C)CNC2CCCCC2)cc1 (racemic) | 0.95 | 
43 | CCc1ccc(C(=O)C(C)Cc2ccncc2)cc1 (racemic) | 1.04 | 
44 | CSCCOc1ccc(C(=O)C(C)CN2CCCCC2)cc1 (racemic) | 0.96 | 
